Laboratory results published in patent publication US8722715B2, “Antimicrobial oxazolidinone, hydantoin and imidazolidinone compositions” (NovaBay Pharmaceuticals, priority 2008, dated 2014).

Columns and labels:
Format in all cases: cell-based
[1] = test system: Staphylococcus aureus (ATCC 29213); experiment: Antimicrobial activity, MBC, S. aureus ATCC 29213; conditions: 1 h at room temperature
Procedure: (§1) To determine antimicrobial activity of compounds of the present disclosure, Escherichia coli (ATCC 25922), Staphylococcus aureus (ATCC 29213), Pseudomonas aeruginosa (ATCC 27853), and Candida albicans (ATCC 10231) were used in primary screening. In addition, Escherichia coli (MCC 80392), Staphylococcus aureus (MCC 91731), Pseudomonas aeruginosa (MCC 4438), and Candida albicans (MCC 50319), provided by Alcon Laboratories, Fort Worth, Tex., were used. The microbial cultures were diluted in sterile saline pH 4 to prepare inocula. Test compounds were titrated by stepwise two-fold dilutions in sterile saline pH 4. A total of 1.0×10^5 to 1.0×10^6 Colony Forming Units (CFU)/mL microbe was added to each tube, mixed by gentle vortexing, and then incubated at room temperature for 1 h. Microbial plating on Petri dishes (Tryptic Soy agar or Saboraud's Dextrose agar) was performed immediately after the designated exposure after neutralization of the test article dilutions in Dey-Engley Broth. Plates were incubated at 37° C., and the numbers of microbes were counted by direct colony count to quantitate the surviving microbes as CFU/mL. Positive growth controls were made with sterile 0.9% saline. Compounds were dissolved in unbuffered isotonic saline (SAL) or phosphate buffered saline (PBS) at pH 4 or pH 7 (using HCl and/or NaOH as needed). All compounds were tested three times. The results are tabulated to show the comparison of antimicrobial effectiveness range of the compounds. Data shown are the Minimum Bactericidal Concentration (MBC) or Minimum Fungicidal Concentration (MFC) (≧99.9% kill) in μg/mL.

[2] = test system: Candida albicans (ATCC 10231); experiment: Antimicrobial activity, MFC, C. albicans ATCC 10231; conditions: 1 h at room temperature
Procedure: as §1

[3] = test system: Escherichia coli (ATCC 25922); experiment: Antimicrobial activity, MBC, E. coli ATCC 25922; conditions: 1 h at room temperature
Procedure: as §1

[4] = test system: mouse fibroblast cells (ATCC CCL-1, L929); experiment: Cytotoxicity, WST-8 colorimetric assay; conditions: pH 4 (Sal), 60 min exposure, WST-8 read after 18-20 hours
Procedure: Cytotoxicity is assessed by a colorimetric assay system using the Dojindo™ cell counting kit containing 2-(2-methoxy-4-nitrophenyl)-3-(4-nitrophenyl)-5-(2,4-disulfophenyl)-2H-tetrazolium, monosodium salt (WST-8). In this assay, the WST-8 reagent is bioreduced by cellular dehydrogenases to a formazan product that is highly soluble in tissue culture medium. The orange formazan, which is produced only by live cells, is a direct measure of cell viability and can be read spectrophotometrically (e.g., evaluation of a soluble tetrazolium/formazan assay for cell growth and drug sensitivity in culture using human and other tumor cell lines is described by D. A. Scudiero et al., Cancer Res., 48(17), 4827-33 (1988). Similar approaches for determining the cell viability are known in the art.
In a standard assay, mouse fibroblast cells (ATCC CCL-1, L929), are cultured in Minimum Essential Medium, α-medium supplemented with 10% heat inactivated fetal bovine serum, L-glutamine, penicillin and streptomycin. Cells are trypsinized and counted under the microscope and seeded at 1.5×10^4 total cells per 100 μL per well of a flat-bottom 96-well plate in order to achieve ˜80% confluence after overnight incubation at 37° C. […]
Test articles were prepared as 2-fold serial dilutions and 170 μL of each dilution was added into each of 4-wells (total volume per well=200 μL). […] Absorbance was read at 450 nm with reference wavelength at 750 nm using Molecular Device SpectraMax M5 plate reader. […]
The CT50 value for each compound was calculated from the absorbance values (A450/750) and is defined as the concentration of test article that results in survival of 50% of the cells following treatment. The absorbance A450/750 from each well of untreated cells and from each well within the dilution series was measured. […] Next, a non-linear regression (curve fit) analysis was performed on all the absorbance data measured from the dilution series, including the absorbance data obtained from wells of the untreated control cells. […]

[5] = test system: Pseudomonas aeruginosa (ATCC 27853); experiment: Antimicrobial activity, MBC, P. aeruginosa ATCC 27853; conditions: pH 7 (PBS), 1 h at room temperature
Procedure: as §1, with “The results are tabulated to show the comparison of antimicrobial effectiveness range of the compounds. Data shown are the Minimum Bactericidal Concentration (MBC) or Minimum Fungicidal Concentration (MFC) (≧99.9% kill) in μg/mL.” left out

[6] = test system: Staphylococcus aureus (MCC 91731); experiment: Antimicrobial activity, MBC, S. aureus MCC 91731; conditions: 1 h at room temperature
Procedure: as §1, with “The results are tabulated to show the comparison of antimicrobial effectiveness range of the compounds. Data shown are the Minimum Bactericidal Concentration (MBC) or Minimum Fungicidal Concentration (MFC) (≧99.9% kill) in μg/mL.” left out

[7] = test system: Escherichia coli (MCC 80392); experiment: Antimicrobial activity, MBC, E. coli MCC 80392; conditions: 1 h at room temperature
Procedure: as §1, with “The results are tabulated to show the comparison of antimicrobial effectiveness range of the compounds. Data shown are the Minimum Bactericidal Concentration (MBC) or Minimum Fungicidal Concentration (MFC) (≧99.9% kill) in μg/mL.” left out

[8] = test system: Candida albicans (MCC 50319); experiment: Antimicrobial activity, MFC, C. albicans MCC 50319; conditions: 1 h at room temperature
Procedure: as §1, with “The results are tabulated to show the comparison of antimicrobial effectiveness range of the compounds. Data shown are the Minimum Bactericidal Concentration (MBC) or Minimum Fungicidal Concentration (MFC) (≧99.9% kill) in μg/mL.” left out

Compound	Minimum Bactericidal Concentration (MBC) (≧99.9% kill) ([1]; pH 4 (Sal)) [µg/mL]	Minimum Bactericidal Concentration (MBC) (≧99.9% kill) ([1]; pH 7 (PBS)) [µg/mL]	Minimum Fungicidal Concentration (MFC) (≧99.9% kill) ([2]; pH 7 (PBS)) [µg/mL]	Minimum Bactericidal Concentration (MBC) (≧99.9% kill) ([3]; pH 4 (Sal)) [µg/mL]	Minimum Bactericidal Concentration (MBC) (≧99.9% kill) ([3]; pH 7 (PBS)) [µg/mL]	CT50 (concentration of test article that results in survival of 50% of the cells) [4] [mM]	Minimum Fungicidal Concentration (MFC) (≧99.9% kill) ([2]; pH 4 (Sal)) [µg/mL]	Minimum Bactericidal Concentration (MBC) (≧99.9% kill) [5] [µg/mL]	Minimum Bactericidal Concentration (MBC) (≧99.9% kill) ([6]; pH 4 (Sal)) [µg/mL]	Minimum Bactericidal Concentration (MBC) (≧99.9% kill) ([6]; pH 7 (PBS)) [µg/mL]	Minimum Bactericidal Concentration (MBC) (≧99.9% kill) ([7]; pH 4 (Sal)) [µg/mL]	Minimum Bactericidal Concentration (MBC) (≧99.9% kill) ([7]; pH 7 (PBS)) [µg/mL]	Minimum Fungicidal Concentration (MFC) (≧99.9% kill) ([8]; pH 4 (Sal)) [µg/mL]	Minimum Fungicidal Concentration (MFC) (≧99.9% kill) ([8]; pH 7 (PBS)) [µg/mL]
CC[N+](C)(C)CC1(C)COC(=O)N1Cl.[Cl-] (centres unmarked) [Compound 22-38, N-((3-chloro-4-methyl-2-oxooxazolidin-4-yl)methyl)-N,N-dimethylethanaminium chloride]	64	4	8	16	2	0.86								
2-(3-Chloro-4,4-dimethyl-2,5-dioxoimidazolidin-1-yl)-N,N,N-trimethylethanaminium chloride [Compound 22-48]	>128	16	128	128	4		1024							
C[N+]1(C)CCC2(CC1)CN(Cl)C(=O)O2.[Cl-] [Compound 22-36, 3-chloro-8,8-dimethyl-2-oxo-1-oxa-3-aza-8-azoniaspiro[4.5]decane chloride]	512	32	256	256	16	0.7								
CC1(CS(=O)(=O)O)COC(=O)N1Cl (centres unmarked) [Compound 22-01, (3-chloro-4-methyl-2-oxooxazolidin-4-yl)methanesulfonic acid]	256	256	1024	256	128	1.1	>512	256	16	16	2	16	128	128
CC1(C[N+](C)(C)C)COC(=O)N1Cl.[Cl-] (centres unmarked) [Compound 22-04, 1-(3-Chloro-4-methyl-2-oxooxazolidin-4-yl)-N,N,N-trimethylmethanaminium chloride]	64			16			>256							
CN1C(=O)N(Cl)C(C)(C[N+](C)(C)C)C1=O.[Cl-] (centres unmarked) [Compound 22-27, 1-(3-chloro-1,4-dimethyl-2,5-dioxoimidazolidin-4-yl)-N,N,N-trimethylmethanaminium chloride]	64			16			>256							
